Reference: patent publication US20260167671A1, “IMMUNOMODULATORS” (Bristol-Myers Squibb Company, priority 2021, published 2026)
Like-named read-outs stand apart in the source and are kept apart here.

Target: T1, human PD-L1 (293T-hPD-L1 cells; binding of PE-labeled PD-1-Ig) (Homo sapiens, UniProt Q9NZQ7)
T1 construct: expressed in transfected cells; host or cells: 293T (human embryonic kidney) stably over-expressing human PD-L1
Test: 293T-hPD-L1 Cell Binding High-Content Screening Assay (CBA)
Method: 293T-hPD-L1 Cell Binding High-Content Screening Assay (CBA).
Phycoerythrin (PE) was covalently linked to the Ig epitope tag of human PD-1-Ig and fluorescently-labeled PD-1-Ig was used for binding studies with a human embryonic kidney cell line (293T) stably over-expressing human PD-L1 (293T-hPD-L1). Briefly, 2×10^3 293T-hPD-L1 cells were seeded into 384 well plates in 20 μl of DMEM supplemented with 10% fetal calf serum and cultured overnight. 125 nl of compound was added to cells followed by 5 μl of PE-labeled PD-1-Ig (0.5 nM final), diluted in DMEM supplemented with 10% fetal calf serum, followed by incubation at 37° C. for 1 h. Cells were washed 3× in 100 μl dPBS followed by fixation with 30 μl of 4% paraformaldehyde in dPBS containing 10 μg/ml Hoechst 33342 for 30 min at room temperature. Cells were washed 3× in 100 μl of dPBS followed by final addition of 15 μl of dPBS. Data was collected and processed using a Cell Insight NXT High Content Imager and associated software.
Table 1 lists the IC50 values for representative examples of this disclosure measured in the 293T-hPD-L1 Cell Binding High-Content Screening Assay.

T1 sequence (Q9NZQ7 19-290): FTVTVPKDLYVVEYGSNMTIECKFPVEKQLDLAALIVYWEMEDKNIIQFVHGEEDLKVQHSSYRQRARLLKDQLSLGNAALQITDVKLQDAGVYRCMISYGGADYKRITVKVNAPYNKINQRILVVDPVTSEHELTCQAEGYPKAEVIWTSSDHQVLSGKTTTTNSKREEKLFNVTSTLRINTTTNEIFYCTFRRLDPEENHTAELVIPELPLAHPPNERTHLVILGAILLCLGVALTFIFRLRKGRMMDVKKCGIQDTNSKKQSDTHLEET

Row | SMILES | IC50 [nM] | IC50 (293T cells stably over-expressing human PD-L1, PE-labeled human PD-1-Ig 0.5 nM final, 37° C. for 1 h, read-out: 293T-hPD-L1_PD-1 IC50) [nM]
1 | CCCC[C@H]1C(=O)N(C)[C@@H](CCCC)C(=O)N[C@@H](CC(C)C)C(=O)N[C@H](C(=O)NCC(=O)N[C@@H](Cc2cn(CCOCCOCCOCCOCCOCCOCCOCCOCCOCCOCCOCCNC(=O)CC[C@H](NC(=O)CCCCCCCCCCCOc3ccc(C(=O)O)cc3)C(=O)O)nn2)C(=O)O)CSCC(=O)N[C@@H](Cc2ccc(O)cc2)C(=O)N(C)[C@@H](C)C(=O)N[C@@H](CC(N)=O)C(=O)N2CCC[C@H]2C(=O)N[C@@H](CN)C(=O)N[C@@H](CC(C)C)C(=O)N2C[C@H](O)C[C@H]2C(=O)N[C@@H](Cc2c[nH]c3ccccc23)C(=O)N[C@@H](CCN)C(=O)N[C@@H](Cc2cn(CC(=O)O)c3ccccc23)C(=O)N1C [Example 1003] | 3.6 | 
2 | CCCC[C@H]1C(=O)N(C)[C@@H](CCCC)C(=O)N[C@@H](CC(C)C)C(=O)N[C@H](C(=O)NCC(=O)N[C@@H](Cc2cn(CCOCCOCCOCCOCCOCCOCCOCCOCCOCCOCCOCCNC(=O)CC[C@H](NC(=O)CCCCCCCCCOc3ccc(C(=O)O)cc3)C(=O)O)nn2)C(=O)O)CSCC(=O)N[C@@H](Cc2ccc(O)cc2)C(=O)N(C)[C@@H](C)C(=O)N[C@@H](CC(N)=O)C(=O)N2CCC[C@H]2C(=O)N[C@@H](CN)C(=O)N[C@@H](CC(C)C)C(=O)N2C[C@H](O)C[C@H]2C(=O)N[C@@H](Cc2c[nH]c3ccccc23)C(=O)N[C@@H](CCN)C(=O)N[C@@H](Cc2cn(CC(=O)O)c3ccccc23)C(=O)N1C [Example 1001] |  | 3.3
